Measurements from US8377636B2, “Biological markers predictive of anti-cancer response to kinase inhibitors” (OSI Pharmaceuticals, LLC, priority 2007, dated 2013).

Tests used:
H292 NSCLC xenograft = assay: Xenograft tumor growth inhibition; type: in vivo, CD-1 nu/nu mice; conditions: H292 xenograft in mice; 100 mg/kg once a day for 14 days, oral gavage
Experimental: (§1) FIG. 9: Sensitivity of NSCLC cell lines to erlotinib In Vivo. Female CD-1 nu/nu mice were implanted with H292 or Calu6 cells and tumor allowed to grow to 200 mm^3. Animals were then either left untreated or treated with 100 mg/kg erlotinib once a day for 14 days. Tumor volume was measured twice weekly.
(§2) Female CD-1 nu/nu mice (Charles River Laboratories, Wilmington, Mass.) were implanted with harvested NSCLC tumor cells in a single subcutaneous site on the flank of the mice in the axillary region. Tumors were allowed to grow to 200±50 mm^3, at which time the animals were sorted into treatment groups of 8 animals per group based on weight (±1 g body weight) and tattooed on the tail for permanent identification. Tumor volumes and body weights were determined twice weekly. The tumor volume was determined by measuring in two directions with vernier calipers and calculated using the formula: Tumor volume=(length×width^2)/2. The data were plotted as the % change in mean values of tumor volume and body weight for each group. The tumor growth inhibition (% TGI) was determined as % TGI=[…]: where Wt is the median tumor volume of the treated group at time x and Wc is the median tumor volume of the control group at time x. TARCEVA® was dosed in a 6% Captisol (CyDex, Inc) in WFI (Water for Injection) solution and all control animals were dosed with an equal volume of the vehicle. […]

Calu6 NSCLC xenograft = assay: Xenograft tumor growth inhibition; type: in vivo, CD-1 nu/nu mice; conditions: Calu6 xenograft in mice; 100 mg/kg once a day for 14 days, oral gavage
Experimental: as §1, §2

H292 NSCLC cell line = assay: Sensitivity of tumor cells to EGFR kinase inhibitor; type: cell-based, human; conditions: phenotype Epithelial
Experimental: (§3) The human NSCLC lines H1299, H266, H522, H650, H1437, H1155, Calu1, Hop92, H23, H292, H358, H322, H441, A549, Calu6, H460, H1703 and SW1573 were cultured in the appropriate ATCC recommended supplemented media. Cell extracts were prepared by detergent lysis (50 mM Tris-HCl, pH8, 150 mM NaCl, 1% NP-40, 0.5% NaDeoxycholate, 0.1% SDS) containing protease and phosphatase inhibitors. The soluble protein concentration was determined by micro-BSA assay (Pierce, Rockford Ill.). In experiments monitoring serum stimulation, cells were grown in media with 0.5% FBS for 24 hours followed by addition of FBS to a final concentration of 10% for 10 minutes prior to lysis. In experiments where inhibitor treatment was required, inhibitor was added at the indicated concentration and the cells the stimulated with the indicated ligand. For cell proliferation assays cells were plated, inhibitor added and proliferation measured after 72 hours using the CELLTITERGLO™ cell viability assay (Promega, Madison Wis.).

SW1573 NSCLC cell line = assay: as above; type: cell-based, human; conditions: phenotype Mesenchymal-like
Experimental: as §3

H1155 NSCLC cell line = assay: as above; type: cell-based, human; conditions: phenotype Mesenchymal-like
Experimental: as §3

H650 NSCLC cell line = assay: as above; type: cell-based, human; conditions: phenotype Mesenchymal-like
Experimental: as §3

A549 NSCLC cell line = assay: as above; type: cell-based, human; conditions: phenotype Mixed
Experimental: as §3

H226 NSCLC cell line = assay: as above; type: cell-based, human; conditions: phenotype Mesenchymal-like
Experimental: as §3

H441 NSCLC cell line = assay: as above; type: cell-based, human; conditions: phenotype Epithelial
Experimental: as §3

H358 NSCLC cell line = assay: as above; type: cell-based, human; conditions: phenotype Epithelial
Experimental: as §3

HOP92 NSCLC cell line = assay: as above; type: cell-based, human; conditions: phenotype Mesenchymal-like
Experimental: as §3

H1703 NSCLC cell line = assay: as above; type: cell-based, human; conditions: phenotype Mesenchymal-like
Experimental: as §3

H1437 NSCLC cell line = assay: as above; type: cell-based, human; conditions: phenotype Epithelial
Experimental: as §3

H460 NSCLC cell line = assay: as above; type: cell-based, human; conditions: phenotype Mesenchymal-like
Experimental: as §3

H23 NSCLC cell line = assay: as above; type: cell-based, human; conditions: phenotype Mesenchymal-like
Experimental: as §3

CALU1 NSCLC cell line = assay: as above; type: cell-based, human; conditions: phenotype Mesenchymal-like
Experimental: as §3

H1299 NSCLC cell line = assay: as above; type: cell-based, human; conditions: phenotype Mesenchymal-like
Experimental: as §3

CALU6 NSCLC cell line = assay: as above; type: cell-based, human; conditions: phenotype Mesenchymal-like
Experimental: as §3

H522 NSCLC cell line = assay: as above; type: cell-based, human; conditions: phenotype Mesenchymal-like
Experimental: as §3

H322 NSCLC cell line = assay: as above; type: cell-based, human; conditions: phenotype Epithelial
Experimental: as §3

H1703 cells [1] = assay: Cell proliferation, CellTitreGlo assay; type: cell-based, human
Experimental: (§4) FIG. 3: Inhibition of PDGFR activity in NSCLC. A. H1703 cells were treated with increasing concentrations of PDGFR inhibitor 1 (OSI-930) (▪), PDGFR inhibitor 2 (▴) or an EGFR inhibitor (erlotinib) (▾). After 72 hours incubation proliferation of the cells was measured by CellTitreGlo assay and plotted as a % proliferation relative to untreated cells. B. H1703 cells were treated with the PDGFR inhibitor OSI-930 for 2 hours and then left untreated or treated with PDGF (10 ng/ml) for 15 mins. Protein extracts were prepared and immunoblots probed with the indicated antibodies C. H1703 and Calu1 cells were treated with either 1 or 5 μM of PDGFR inhibitor OSI-930 and the effect on closure of the wound analysed after 24 hrs.
(§5) FIG. 6: Inhibition of FGFR activity in NSCLC. A. H1703 (▪), Calu1 (▴) and H226 (▾) cells were treated with increasing concentrations of FGFR inhibitor (PD173074). After 72 hours incubation proliferation of the cells was measured by CellTitreGlo assay and plotted as a % proliferation relative to untreated cells.
as §3

H1703 cells [2] = assay: Cell motility, closure of the wound; type: cell-based, human; conditions: 1 or 5 μM, 24 hrs
Experimental: as §4

Calu1 cells [3] = assay: Cell motility, closure of the wound; type: cell-based, human; conditions: 1 or 5 μM, 24 hrs
Experimental: as §4

[4] = test system: ERK MAP kinase and AKT pathways in H1703 cells; assay: Intracellular signaling, immunoblot of pERK and pAKT; type: cell-based, human; parameters: AKT pathway inhibition: dose or concentration left out as unconfirmed
Experimental: as §4
(§6) FIG. 7: Inhibition of FGFR Signaling in H1703 and H226 NSCLC Cells. H1703 and H226 cells were treated with either […] PD173074 for 2 hours and then left untreated (CON) or treated with 10 ng/ml FGF for 15 min (FGF). Cell lysates were prepared and immunoblots using antibodies against pERK, total ERK, pAKT (ser473), total AKT and β-actin were performed.
as §3, with “Wis.). […]” for “Wis.).”

H358 cells = assay: Cell proliferation, CellTitreGlo assay; type: cell-based, human
Experimental: as §3

H226 cells = assay: Cell proliferation, CellTitreGlo assay; type: cell-based, human
Experimental: as §5, §3

Calu1 cells [5] = assay: Cell proliferation, CellTitreGlo assay; type: cell-based, human
Experimental: as §5, §3

[6] = test system: ERK MAP kinase and AKT pathways in H226 cells; assay: Intracellular signaling, immunoblot of pERK and pAKT; type: cell-based, human
Experimental: as §6
as §3, with “Wis.). […]” for “Wis.).”

[7] = test system: ERK MAP kinase and AKT pathways in Calu1 cells; assay: as above; type: cell-based, human; conditions: presence or absence of exogenously added ligand
Experimental: as §3
Protein immunodetection was performed by electrophoretic transfer of SDS-PAGE separated proteins to nitrocellulose, incubation with antibody and chemiluminescent detection (PicoWest; Pierce, Rockford, Ill.). […]

[8] = 0.5% FCS and PDGF (mixed AA, AB and BB forms) added
[9] = increasing concentrations, 72 hours
[10] = for 2 hours, basal and FGF (10 ng/ml, 15 min) stimulated

SMILES: C#Cc1cccc(Nc2ncnc3cc(OCCOC)c(OCCOC)cc23)c1 [Erlotinib, [6,7-bis(2-methoxyethoxy)-4-quinazolin-4-yl]-(3-ethynylphenyl) amine]
- Xenograft growth, tumor volume (H292 NSCLC xenograft): sensitive to EGFR inhibition and shows a reduction in tumor volume during the dosing period
- Xenograft growth, tumor volume (Calu6 NSCLC xenograft): insensitive to EGFR inhibition
- Erlotinib Senistivity (H292 NSCLC cell line): Sensitive
- Erlotinib Senistivity (SW1573 NSCLC cell line): Insensitive
- Erlotinib Senistivity (H1155 NSCLC cell line): Insensitive
- Erlotinib Senistivity (H650 NSCLC cell line): Insensitive
- Erlotinib Senistivity (A549 NSCLC cell line): Intermediate
- Erlotinib Senistivity (H226 NSCLC cell line): Insensitive
- Erlotinib Senistivity (H441 NSCLC cell line): Sensitive
- Erlotinib Senistivity (H358 NSCLC cell line): Sensitive
- Erlotinib Senistivity (HOP92 NSCLC cell line): Insensitive
- Erlotinib Senistivity (HOP92 NSCLC cell line; listed as erlotinib): insensitive
- Erlotinib Senistivity (H1703 NSCLC cell line): Insensitive
- Erlotinib Senistivity (H1703 NSCLC cell line; listed as erlotinib): insensitive
- Erlotinib Senistivity (H1437 NSCLC cell line): Insensitive
- Erlotinib Senistivity (H460 NSCLC cell line): Insensitive
- Erlotinib Senistivity (H23 NSCLC cell line): Insensitive
- Erlotinib Senistivity (H23 NSCLC cell line; listed as erlotinib): insensitive
- Erlotinib Senistivity (CALU1 NSCLC cell line): Insensitive
- Erlotinib Senistivity (H1299 NSCLC cell line): Insensitive
- Erlotinib Senistivity (CALU6 NSCLC cell line): Insensitive
- Erlotinib Senistivity (H522 NSCLC cell line): Insensitive
- Erlotinib Senistivity (H322 NSCLC cell line): Sensitive

SMILES: O=C(Nc1ccc(OC(F)(F)F)cc1)c1sccc1NCc1ccnc2ccccc12 [OSI-930]
- Inhibition of cell growth (proliferation) (H1703 cells [1]; [8]): inhibited more potently
- Inhibition of cell growth (proliferation) (H1703 cells [1]; 10% FCS, 72 hours): Inhibition of cell growth
- Cell motility (closure of the wound) (H1703 cells [2]): inhibition of cell motility
- Cell motility (closure of the wound) (Calu1 cells [3]): inhibition of cell motility
- Phosphorylation of ERK MAP kinase and AKT (serine 473) ([4]; inhibitor 2 hours, basal (10% FCS) and ligand stimulated (PDGF 10 ng/ml, 15 mins)): reduced phosphorylation of ERK MAP kinase and AKT (on serine 473)
- Inhibition of cell growth (proliferation) (H358 cells; [8]): failed to show any enhanced growth inhibition
- Inhibition of cell growth (proliferation) (H358 cells; 10% FCS, 72 hours): only observed in H1703 cells
- Inhibition of cell growth (proliferation) (H226 cells; [8]): failed to show any enhanced growth inhibition
- Inhibition of cell growth (proliferation) (H226 cells; 10% FCS, 72 hours): not growth inhibited
- Inhibition of cell growth (proliferation) (Calu1 cells [5]; [8]): failed to show any enhanced growth inhibition
- Inhibition of cell growth (proliferation) (Calu1 cells [5]; 10% FCS, 72 hours): not growth inhibited
- Inhibition of ERK and AKT pathways ([6]; basal and PDGF ligand stimulated): only showed ligand induced inhibition of ERK and AKT pathways

SMILES: CCN(CC)CCCCNc1ncc2cc(-c3cc(OC)cc(OC)c3)c(NC(=O)NC(C)(C)C)nc2n1 [PD173074]
- Growth inhibition (proliferation) (H1703 cells [1]; [9]): growth inhibited
- Activation of the ERK MAP kinase pathway [4, 10]: inhibited
- AKT pathway inhibition ([4]; for 2 hours, basal and FGF stimulated): only inhibited after ligand stimulation
- Growth inhibition (proliferation) (H226 cells; [9]): growth inhibited
- Growth inhibition (proliferation) (Calu1 cells [5]; [9]): little effect
- Signaling (ERK, AKT) [7]: unaffected
- Activation of the ERK MAP kinase pathway [6, 10]: inhibited
